According to US20140309265A1, “MACROCYCLIC COMPOUNDS FOR INHIBITION OF INHIBITORS OF APOPTOSIS” (Ensemble Therapeutics, priority 2011, published 2014):
pIC50: −log10 of the molar value.

Legend:
His-BIR3 (241-356, XIAP) = target: T1, His-BIR3 (241-356, XIAP) (Homo sapiens, UniProt P98170); assay: XIAP-BIR3/SMAC Homogeneous Time Resolved Fluorescence (HTRF) Assay; assay type: binding; conditions: Table 4
T1 construct: additions of His-BIR3 (241-356, XIAP), fluorescein labeled SMAC peptide

[1] = target: T2, His-BIR2-3 (125-356, C202A/C213G, XIAP) (Homo sapiens, UniProt P98170, C202A/C213G); assay: XIAP-BIR2-3 Dimeric SMAC Peptide Homogeneous Time Resolved Fluorescence (HTRF) Assay; assay type: binding; conditions: XIAP BIR2-3, HTRF, Table 4
T2 construct: additions of His-BIR2-3 (125-356, C202A/C213G, XIAP), fluorescein labeled dimeric SMAC peptide
T2 sequence (P98170 125-356 C202A/C213G): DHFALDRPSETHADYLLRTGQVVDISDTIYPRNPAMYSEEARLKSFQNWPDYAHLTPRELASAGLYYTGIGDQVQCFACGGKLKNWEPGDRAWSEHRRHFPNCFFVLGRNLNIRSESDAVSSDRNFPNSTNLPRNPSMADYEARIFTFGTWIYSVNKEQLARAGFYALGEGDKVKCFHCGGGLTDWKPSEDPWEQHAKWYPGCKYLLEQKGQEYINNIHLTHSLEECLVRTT

T1 sequence (P98170 241-356): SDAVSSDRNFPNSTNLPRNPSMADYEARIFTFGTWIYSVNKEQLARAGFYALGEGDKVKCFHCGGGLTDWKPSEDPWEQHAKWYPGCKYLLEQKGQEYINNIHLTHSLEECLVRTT

pIC50 (His-BIR3 (241-356, XIAP)) | pIC50 [1] | SMILES
> 8.00 | ≥ 9.00 | CN[C@@H](C)C(=O)N[C@H](C(=O)N1C[C@@H]2C[C@H]1C(=O)N[C@@H](Cc1ccc3ccccc3c1)C(=O)N[C@H](C(=O)O)Cc1ccc(cc1)OCc1cn(nn1)[C@H]1C[C@@H](C(=O)N[C@@H](Cc3ccc4ccccc4c3)C(=O)N[C@H](C(=O)N(C)CCC(=O)O)Cc3ccc(cc3)OCc3cn2nn3)N(C(=O)[C@@H](NC(=O)[C@H](C)NC)C(C)(C)C)C1)C(C)(C)C [Compound 1028]
> 8.00 | ≥ 9.00 | CN[C@@H](C)C(=O)N[C@H](C(=O)N1C[C@@H]2C[C@H]1C(=O)N[C@@H](Cc1ccc3ccccc3c1)C(=O)N[C@H](C(=O)O)Cc1ccc(cc1)OCc1cn(nn1)[C@H]1C[C@@H](C(=O)N[C@@H](Cc3ccc4ccccc4c3)C(=O)N[C@H](C(=O)NCCCC(=O)O)Cc3ccc(cc3)OCc3cn2nn3)N(C(=O)[C@@H](NC(=O)[C@H](C)NC)C(C)(C)C)C1)C(C)(C)C [Compound 1032]
> 8.00 | 8.00 to 9.00 | CN[C@@H](C)C(=O)N[C@H](C(=O)N1C[C@@H]2C[C@H]1C(=O)N[C@@H](Cc1ccc3ccccc3c1)C(=O)N[C@H](C(=O)O)Cc1ccc(cc1)OCc1cn(nn1)[C@H]1C[C@@H](C(=O)N[C@@H](Cc3ccc4ccccc4c3)C(=O)N[C@H](C(=O)N[C@@H](C)C(=O)O)Cc3ccc(cc3)OCc3cn2nn3)N(C(=O)[C@@H](NC(=O)[C@H](C)NC)C(C)(C)C)C1)C(C)(C)C [Compound 1033]
7.00 to 8.00 | < 8.00 | CN[C@@H](C)C(=O)N[C@H](C(=O)N1C[C@@H]2C[C@H]1C(=O)N[C@@H](Cc1ccc3ccccc3c1)C(=O)N[C@H](C(=O)O)Cc1ccc(cc1)OCc1cn(nn1)[C@H]1C[C@@H](C(=O)N[C@@H](Cc3ccc4ccccc4c3)C(=O)N[C@H](C(=O)N[C@@H](CCCCN)C(=O)N[C@@H](CO)C(=O)O)Cc3ccc(cc3)OCc3cn2nn3)N(C(=O)[C@@H](NC(=O)[C@H](C)NC)C(C)(C)C)C1)C(C)(C)C [Compound 1034]
7.00 to 8.00 | 8.00 to 9.00 | CN[C@@H](C)C(=O)N[C@H](C(=O)N1C[C@@H]2C[C@H]1C(=O)N[C@@H](Cc1ccc3ccccc3c1)C(=O)N[C@H](C(=O)O)Cc1ccc(cc1)OCc1cn(nn1)[C@H]1C[C@@H](C(=O)N[C@@H](Cc3ccc4ccccc4c3)C(=O)N[C@H](C(=O)NS(=O)(=O)CC3CC3)Cc3ccc(cc3)OCc3cn2nn3)N(C(=O)[C@@H](NC(=O)[C@H](C)NC)C(C)(C)C)C1)C(C)(C)C [Compound 1037]
7.00 to 8.00 | < 8.00 | CN[C@@H](C)C(=O)N[C@H](C(=O)N1C[C@@H]2C[C@H]1C(=O)N[C@@H](Cc1ccc3ccccc3c1)C(=O)N[C@H](C(=O)O)Cc1ccc(cc1)OCc1cn(nn1)[C@H]1C[C@@H](C(=O)N[C@@H](Cc3ccc4ccccc4c3)C(=O)N[C@H](C(=O)N[C@@H](CC(=O)O)C(=O)N[C@H](CCSC)C(=O)O)Cc3ccc(cc3)OCc3cn2nn3)N(C(=O)[C@@H](NC(=O)[C@H](C)NC)C(C)(C)C)C1)C(C)(C)C [Compound 1038]
7.00 to 8.00 | 8.00 to 9.00 | CN[C@@H](C)C(=O)N[C@H](C(=O)N1C[C@@H]2C[C@H]1C(=O)N[C@@H](Cc1ccc3ccccc3c1)C(=O)N[C@H](C(=O)O)Cc1ccc(cc1)OCc1cn(nn1)[C@H]1C[C@@H](C(=O)N[C@@H](Cc3ccc4ccccc4c3)C(=O)N[C@H](C(=O)NC(CO)CO)Cc3ccc(cc3)OCc3cn2nn3)N(C(=O)[C@@H](NC(=O)[C@H](C)NC)C(C)(C)C)C1)C(C)(C)C [Compound 1042]
> 8.00 | 8.00 to 9.00 | CN[C@@H](C)C(=O)N[C@H](C(=O)N1C[C@@H]2C[C@H]1C(=O)N[C@@H](Cc1ccc3ccccc3c1)C(=O)N[C@H](C(=O)O)Cc1ccc(cc1)OCc1cn(nn1)[C@H]1C[C@@H](C(=O)N[C@@H](Cc3ccc4ccccc4c3)C(=O)N[C@H](C(=O)NCC[C@@H](O)C[C@@H](O)CC(=O)O)Cc3ccc(cc3)OCc3cn2nn3)N(C(=O)[C@@H](NC(=O)[C@H](C)NC)C(C)(C)C)C1)C(C)(C)C [Compound 1044]
> 8.00 | ≥ 9.00 | CN[C@@H](C)C(=O)N[C@H](C(=O)N1C[C@@H]2C[C@H]1C(=O)N[C@@H](Cc1ccc3ccccc3c1)C(=O)N[C@H](C(=O)O)Cc1ccc(cc1)OCc1cn(nn1)[C@H]1C[C@@H](C(=O)N[C@@H](Cc3ccc4ccccc4c3)C(=O)N[C@H](C(=O)NS(=O)(=O)CCCC(=O)O)Cc3ccc(cc3)OCc3cn2nn3)N(C(=O)[C@@H](NC(=O)[C@H](C)NC)C(C)(C)C)C1)C(C)(C)C [Compound 1045]

The remaining lines, values behind:

SMILES | pIC50 (His-BIR3 (241-356, XIAP)) | pIC50 [1]
CN[C@@H](C)C(=O)N[C@H](C(=O)N1C[C@@H]2C[C@H]1C(=O)N[C@@H](Cc1ccc3ccccc3c1)C(=O)N[C@H](C(=O)O)Cc1ccc(cc1)OCc1cn(nn1)[C@H]1C[C@@H](C(=O)N[C@@H](Cc3ccc4ccccc4c3)C(=O)N[C@H](C(=O)N3CCC(C(=O)O)CC3)Cc3ccc(cc3)OCc3cn2nn3)N(C(=O)[C@@H](NC(=O)[C@H](C)NC)C(C)(C)C)C1)C(C)(C)C [Compound 1027] | 7.00 to 8.00 | 8.00 to 9.00
CN[C@@H](C)C(=O)N[C@H](C(=O)N1C[C@@H]2C[C@H]1C(=O)N[C@@H](Cc1ccc3ccccc3c1)C(=O)N[C@H](C(=O)O)Cc1ccc(cc1)OCc1cn(nn1)[C@H]1C[C@@H](C(=O)N[C@@H](Cc3ccc4ccccc4c3)C(=O)N[C@H](C(=O)NCc3cccc(-c4nnn[nH]4)c3)Cc3ccc(cc3)OCc3cn2nn3)N(C(=O)[C@@H](NC(=O)[C@H](C)NC)C(C)(C)C)C1)C(C)(C)C [Compound 1029] | 7.00 to 8.00 | 8.00 to 9.00
CN[C@@H](C)C(=O)N[C@H](C(=O)N1C[C@@H]2C[C@H]1C(=O)N[C@@H](Cc1ccc3ccccc3c1)C(=O)N[C@H](C(=O)O)Cc1ccc(cc1)OCc1cn(nn1)[C@H]1C[C@@H](C(=O)N[C@@H](Cc3ccc4ccccc4c3)C(=O)N[C@H](C(=O)NS(=O)(=O)c3ccccn3)Cc3ccc(cc3)OCc3cn2nn3)N(C(=O)[C@@H](NC(=O)[C@H](C)NC)C(C)(C)C)C1)C(C)(C)C [Compound 1035] | > 8.00 | ≥ 9.00
CN[C@@H](C)C(=O)N[C@H](C(=O)N1C[C@@H]2C[C@H]1C(=O)N[C@@H](Cc1ccc3ccccc3c1)C(=O)N[C@H](C(=O)O)Cc1ccc(cc1)OCc1cn(nn1)[C@H]1C[C@@H](C(=O)N[C@@H](Cc3ccc4ccccc4c3)C(=O)N[C@H](C(=O)NS(=O)(=O)c3ccc(OC(F)(F)F)cc3)Cc3ccc(cc3)OCc3cn2nn3)N(C(=O)[C@@H](NC(=O)[C@H](C)NC)C(C)(C)C)C1)C(C)(C)C [Compound 1036] | 7.00 to 8.00 | 8.00 to 9.00
CN[C@@H](C)C(=O)N[C@H](C(=O)N1C[C@@H]2C[C@H]1C(=O)N[C@@H](Cc1ccc3ccccc3c1)C(=O)N[C@H](C(=O)O)Cc1ccc(cc1)OCc1cn(nn1)[C@H]1C[C@@H](C(=O)N[C@@H](Cc3ccc4ccccc4c3)C(=O)N[C@H](C(=O)NS(=O)(=O)c3ccc4ccccc4c3)Cc3ccc(cc3)OCc3cn2nn3)N(C(=O)[C@@H](NC(=O)[C@H](C)NC)C(C)(C)C)C1)C(C)(C)C [Compound 1039] | 7.00 to 8.00 | 8.00 to 9.00
CN[C@@H](C)C(=O)N[C@H](C(=O)N1C[C@@H]2C[C@H]1C(=O)N[C@@H](Cc1ccc3ccccc3c1)C(=O)N[C@H](C(=O)O)Cc1ccc(cc1)OCc1cn(nn1)[C@H]1C[C@@H](C(=O)N[C@@H](Cc3ccc4ccccc4c3)C(=O)N[C@H](C(=O)NCc3cc(F)c(OC)c(F)c3)Cc3ccc(cc3)OCc3cn2nn3)N(C(=O)[C@@H](NC(=O)[C@H](C)NC)C(C)(C)C)C1)C(C)(C)C [Compound 1040] | < 7.00 | < 8.00
CN[C@@H](C)C(=O)N[C@H](C(=O)N1C[C@@H]2C[C@H]1C(=O)N[C@@H](Cc1ccc3ccccc3c1)C(=O)N[C@H](C(=O)O)Cc1ccc(cc1)OCc1cn(nn1)[C@H]1C[C@@H](C(=O)N[C@@H](Cc3ccc4ccccc4c3)C(=O)N[C@H](C(=O)NCc3cc(F)c(O)c(F)c3)Cc3ccc(cc3)OCc3cn2nn3)N(C(=O)[C@@H](NC(=O)[C@H](C)NC)C(C)(C)C)C1)C(C)(C)C [Compound 1041] | 7.00 to 8.00 | 8.00 to 9.00
CN[C@@H](C)C(=O)N[C@H](C(=O)N1C[C@@H]2C[C@H]1C(=O)N[C@@H](Cc1ccc3ccccc3c1)C(=O)N[C@H](C(=O)O)Cc1ccc(cc1)OCc1cn(nn1)[C@H]1C[C@@H](C(=O)N[C@@H](Cc3ccc4ccccc4c3)C(=O)N[C@H](c3n[nH]oc3=O)Cc3ccc(cc3)OCc3cn2nn3)N(C(=O)[C@@H](NC(=O)[C@H](C)NC)C(C)(C)C)C1)C(C)(C)C [Compound 1043] | 7.00 to 8.00 | 8.00 to 9.00
CN[C@@H](C)C(=O)N[C@H](C(=O)N1C[C@@H]2C[C@H]1C(=O)N[C@@H](Cc1ccc3ccccc3c1)C(=O)N[C@H](C(=O)O)Cc1ccc(cc1)OCc1cn(nn1)[C@H]1C[C@@H](C(=O)N[C@@H](Cc3ccc4ccccc4c3)C(=O)N[C@H](C(=O)NS(=O)(=O)c3ccncc3)Cc3ccc(cc3)OCc3cn2nn3)N(C(=O)[C@@H](NC(=O)[C@H](C)NC)C(C)(C)C)C1)C(C)(C)C [Compound 1046] | > 8.00 | ≥ 9.00
CN[C@@H](C)C(=O)NC(C(=O)N1C[C@@H]2C[C@H]1C(=O)N[C@@H](Cc1ccc3ccccc3c1)C(=O)N[C@H](c1nc(=O)o[nH]1)Cc1ccc(cc1)OCc1cn(nn1)[C@H]1C[C@@H](C(=O)N[C@@H](Cc3ccc4ccccc4c3)C(=O)N[C@H](C(=O)O)Cc3ccc(cc3)OCc3cn2nn3)N(C(=O)[C@@H](NC(=O)[C@H](C)NC)C(C)(C)C)C1)C(C)(C)C (some centres unmarked) [Compound 1047] | > 8.00 | ≥ 9.00
